Assay results published in patent US9593108B2, “Compounds and methods for antiviral treatment” (PTC Therapeutics, Inc., priority 2009, dated 2017).

Tests used:
[1] = system: HCV replicon RNA (GenBank Accession No. AJ242654); assay: HCV Replicon Assay (replicon RNA reduction and/or Fluc reporter signal); assay type: cell-based, Hepatitis C virus; settings: Hepatitis C virus, 72 h, replicon-containing cells cultured with test compound for up to 3 days
Procedure, shortened: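 IC50 values mostly reflect the drop in replicon RNA, though Fluc reporter signal may also be used. Compound incubated with cells carrying the bicistronic replicon for as long as 3 days; interferon served as positive control.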

SMILES	IC50 [1] [nM]	melting point [°C]
CC(C)(C)S(=O)(=O)Nc1ccc(-c2c(C#N)c3ncc(Cl)cc3n2C2CCCCC2)cc1 [Cpd 288, N-[4-(6-chloro-3-cyano-1-cyclohexyl-1H-pyrrolo[3,2-b]pyridin-2-yl)phenyl]-2-methylpropane-2-sulfonamide]	500 to 2000	279 to 283
Cc1cnc2c(c1)c(C#N)c(-c1cc(C)c(S(=O)(=O)N[C@@H](C)C(F)(F)F)cn1)n2C1CCC1 [Cpd 289, 6-(3-cyano-1-cyclobutyl-5-methyl-1H-pyrrolo[2,3-b]pyridin-2-yl)-4-methyl-N-[(2S)-1,1,1-trifluoropropan-2-yl]pyridine-3-sulfonamide]	< 500	218 to 223
Cc1cc(S(=O)(=O)N[C@@H](C)C(F)(F)F)cnc1-c1c(C#N)c2cc(Cl)cnc2n1C1CCCC1 [Cpd 290, 6-(5-chloro-3-cyano-1-cyclopentyl-1H-pyrrolo[2,3-b]pyridin-2-yl)-5-methyl-N-[(2S)-1,1,1-trifluoropropan-2-yl]pyridine-3-sulfonamide]	< 500	240 to 245
Cc1cnc2c(c1)c(C#N)c(-c1ncc(S(=O)(=O)N[C@@H](C)C(F)(F)F)cc1C)n2C1CCC1 [Cpd 291, 6-(3-cyano-1-cyclobutyl-5-methyl-1H-pyrrolo[2,3-b]pyridin-2-yl)-5-methyl-N-[(2S)-1,1,1-trifluoropropan-2-yl]pyridine-3-sulfonamide]	< 500	181 to 185
COc1cnc2c(c1)c(C#N)c(-c1ncc(S(=O)(=O)N[C@@H](C)C(F)(F)F)cc1C)n2C1CCC1 [Cpd 292, 6-(3-cyano-1-cyclobutyl-5-methoxy-1H-pyrrolo[2,3-b]pyridin-2-yl)-5-methyl-N-[(2S)-1,1,1-trifluoropropan-2-yl]pyridine-3-sulfonamide]	< 500	180 to 183
Cc1cnc2c(c1)c(C#N)c(-c1ccc(S(=O)(=O)NC(C)(C)C)cn1)n2C1CCC1 [Cpd 293, N-tert-butyl-6-(3-cyano-1-cyclobutyl-5-methyl-1H-pyrrolo[2,3-b]pyridin-2-yl)pyridine-3-sulfonamide]	< 500	173 to 175
C[C@H](NS(=O)(=O)c1ccc(-c2c(C#N)c3cc(O)cnc3n2C2CCCC2)nc1)C(F)(F)F [Cpd 294, 6-(3-cyano-1-cyclopentyl-5-hydroxy-1H-pyrrolo[2,3-b]pyridin-2-yl)-N-[(2S)-1,1,1-trifluoropropan-2-yl]pyridine-3-sulfonamide]	< 500	221 to 223
C[C@H](NS(=O)(=O)c1ccc(-c2c(C#N)c3cc(C(F)(F)F)cnc3n2CC2CC2)nc1)C(F)(F)F [Cpd 295, 6-[3-cyano-1-(cyclopropylmethyl)-5-(trifluoromethyl)-1H-pyrrolo[2,3-b]pyridin-2-yl]-N-[(2S)-1,1,1-trifluoropropan-2-yl]pyridine-3-sulfonamide]	< 500	193 to 195
CC(C)(C)NS(=O)(=O)c1ccc(-c2c(C#N)c3cc(C(F)(F)F)cnc3n2CC2CC2)nc1 [Cpd 296, N-tert-butyl-6-[3-cyano-1-(cyclopropylmethyl)-5-(trifluoromethyl)-1H-pyrrolo[2,3-b]pyridin-2-yl]pyridine-3-sulfonamide]	< 500	179 to 180
CC(C)(C)NS(=O)(=O)c1ccc(-c2c(C#N)c3cc(C(F)(F)F)cnc3n2C2CCC2)nc1 [Cpd 297, N-tert-butyl-6-[3-cyano-1-cyclobutyl-5-(trifluoromethyl)-1H-pyrrolo[2,3-b]pyridin-2-yl]pyridine-3-sulfonamide]	< 500	176 to 178
Cc1cc(-c2c(C#N)c3cc(C(F)(F)F)cnc3n2C2CCC2)ncc1S(=O)(=O)N[C@@H](C)C(F)(F)F [Cpd 298, 6-[3-cyano-1-cyclobutyl-5-(trifluoromethyl)-1H-pyrrolo[2,3-b]pyridin-2-yl]-4-methyl-N-[(2S)-1,1,1-trifluoropropan-2-yl]pyridine-3-sulfonamide]	< 500	166 to 171
Cc1cnc2c(c1)c(C#N)c(-c1cccc(NS(=O)(=O)C(C)C)c1)n2C1CCC1 [Cpd 299, N-[3-(3-cyano-1-cyclobutyl-5-methyl-1H-pyrrolo[2,3-b]pyridin-2-yl)phenyl]propane-2-sulfonamide]	2000 to 5000	166 to 173
C[C@H](NS(=O)(=O)c1ccc(-c2c(C#N)c3cc(C(F)(F)F)cnc3n2C2CCC2)cc1)C(F)(F)F [Cpd 300, 4-[3-cyano-1-cyclobutyl-5-(trifluoromethyl)-1H-pyrrolo[2,3-b]pyridin-2-yl]-N-[(2S)-1,1,1-trifluoropropan-2-yl]benzenesulfonamide]	< 500	218 to 220
Cc1cc(S(=O)(=O)N[C@@H](C)C(F)(F)F)cnc1-c1c(C#N)c2cc(C(F)(F)F)cnc2n1C1CCC1 [Cpd 301, 6-[3-cyano-1-cyclobutyl-5-(trifluoromethyl)-1H-pyrrolo[2,3-b]pyridin-2-yl]-5-methyl-N-[(2S)-1,1,1-trifluoropropan-2-yl]pyridine-3-sulfonamide]	< 500	190 to 194
N#Cc1c(-c2ccc(S(=O)(=O)NC3CCC3)cn2)n(C2CCC2)c2ncc(C(F)(F)F)cc12 [Cpd 302, 6-[3-cyano-1-cyclobutyl-5-(trifluoromethyl)-1H-pyrrolo[2,3-b]pyridin-2-yl]-N-cyclobutylpyridine-3-sulfonamide]	< 500	197 to 199
C[C@H](NS(=O)(=O)c1ccc(-c2c(C#N)c3cc(C(F)(F)F)cnc3n2-c2ncccn2)nc1)C(F)(F)F [Cpd 303, 6-[3-cyano-1-(pyrimidin-2-yl)-5-(trifluoromethyl)-1H-pyrrolo[2,3-b]pyridin-2-yl]-N-[(2S)-1,1,1-trifluoropropan-2-yl]pyridine-3-sulfonamide]	< 500	213 to 215
C[C@H](NS(=O)(=O)c1ccc(-c2c(C(N)=O)c3cc(C(F)(F)F)cnc3n2C2CCC2)nc1)C(F)(F)F [Cpd 304, 1-cyclobutyl-5-(trifluoromethyl)-2-(5-{[(2S)-1,1,1-trifluoropropan-2-yl]sulfamoyl}pyridin-2-yl)-1H-pyrrolo[2,3-b]pyridine-3-carboxamide]	< 500	219 to 221
C[C@H](NS(=O)(=O)c1ccc(-c2c(C#N)c3cc(S(C)(=O)=O)cnc3n2C2CCCC2)nc1)C(F)(F)F [Cpd 305, 6-[3-cyano-1-cyclopentyl-5-(methylsulfonyl)-1H-pyrrolo[2,3-b]pyridin-2-yl]-N-[(2S)-1,1,1-trifluoropropan-2-yl]pyridine-3-sulfonamide]	< 500	260 to 261
C[C@H](NS(=O)(=O)c1ccc(-c2c(C#N)c3cc(Cl)cnc3n2-c2ccccn2)nc1)C(F)(F)F [Cpd 306, 6-[5-chloro-3-cyano-1-(pyridin-2-yl)-1H-pyrrolo[2,3-b]pyridin-2-yl]-N-[(2S)-1,1,1-trifluoropropan-2-yl]pyridine-3-sulfonamide]	< 500	179 to 181
C[C@H](NS(=O)(=O)c1ccc(-c2c(C#N)c3cc(Cl)cnc3n2-c2cnccn2)nc1)C(F)(F)F [Cpd 307, 6-[5-chloro-3-cyano-1-(pyrazin-2-yl)-1H-pyrrolo[2,3-b]pyridin-2-yl]-N-[(2S)-1,1,1-trifluoropropan-2-yl]pyridine-3-sulfonamide]	< 500	247 to 249
C[C@H](NS(=O)(=O)c1ccc(-c2c(C#N)c3cc(Cl)cnc3n2-c2ccccc2)nc1)C(F)(F)F [Cpd 308, 6-(5-chloro-3-cyano-1-phenyl-1H-pyrrolo[2,3-b]pyridin-2-yl)-N-[(2S)-1,1,1-trifluoropropan-2-yl]pyridine-3-sulfonamide]	< 500	211 to 213
COc1cnc2c(c1)c(C#N)c(-c1ccc(S(=O)(=O)NC3CCC3)cn1)n2C1CCC1 [Cpd 309, 6-(3-cyano-1-cyclobutyl-5-methoxy-1H-pyrrolo[2,3-b]pyridin-2-yl)-N-cyclobutylpyridine-3-sulfonamide]	< 500	203 to 207
COc1cnc2c(c1)c(C#N)c(-c1ccc(S(=O)(=O)NC3CC3)cn1)n2C1CCC1 [Cpd 310, 6-(3-cyano-1-cyclobutyl-5-methoxy-1H-pyrrolo[2,3-b]pyridin-2-yl)-N-cyclopropylpyridine-3-sulfonamide]	< 500	161 to 162
COc1cnc2c(c1)c(C#N)c(-c1ccc(S(=O)(=O)NC3(C)CC3)cn1)n2C1CCC1 [Cpd 311, 6-(3-cyano-1-cyclobutyl-5-methoxy-1H-pyrrolo[2,3-b]pyridin-2-yl)-N-(1-methylcyclopropyl)pyridine-3-sulfonamide]	< 500	179 to 181
COc1cnc2c(c1)c(C#N)c(-c1ncc(S(=O)(=O)NC3(C)CC3)cn1)n2C1CCC1 [Cpd 313, 2-(3-cyano-1-cyclobutyl-5-methoxy-1H-pyrrolo[2,3-b]pyridin-2-yl)-N-(1-methylcyclopropyl)pyrimidine-5-sulfonamide]	< 500	209 to 212
C[C@H](NS(=O)(=O)c1ccc(-c2c(C#N)c3cc(C(F)(F)F)cnc3n2-c2cnccn2)nc1)C(F)(F)F [Cpd 316, 6-[3-cyano-1-(pyrazin-2-yl)-5-(trifluoromethyl)-1H-pyrrolo[2,3-b]pyridin-2-yl]-N-[(2S)-1,1,1-trifluoropropan-2-yl]pyridine-3-sulfonamide]	< 500	226 to 228
C[C@H](NS(=O)(=O)c1ccc(-c2c(C#N)c3cc(C(F)(F)F)cnc3n2-c2ccccn2)nc1)C(F)(F)F [Cpd 317, 6-[3-cyano-1-(pyridin-2-yl)-5-(trifluoromethyl)-1H-pyrrolo[2,3-b]pyridin-2-yl]-N-[(2S)-1,1,1-trifluoropropan-2-yl]pyridine-3-sulfonamide]	< 500	110 to 112
